In US9796711B2, “Substituted pyrazolo[3,4-b]pyridin-6-carboxylic acids and method of use” (AbbVie S.àr.l., priority 2015, dated 2017):

Legend:
[1] = target: T1, ΔF508-CFTR (Homo sapiens, UniProt P13569, DEL508-508); assay: CFTR cell surface levels using HRP-tagged ΔF508-CFTR expressing CFBE cells, in the presence of a co-corrector; format: cell-based; details: HRP-tagged ΔF508-CFTR expressing CFBE cells, in the presence of 3 μM co-corrector; for EC50: read-out: EC50
T1 construct: host or cells: CFBE41o-, doxycycline-inducible
T1 sequence (P13569 with tags, fused parts or gaps DEL508-508): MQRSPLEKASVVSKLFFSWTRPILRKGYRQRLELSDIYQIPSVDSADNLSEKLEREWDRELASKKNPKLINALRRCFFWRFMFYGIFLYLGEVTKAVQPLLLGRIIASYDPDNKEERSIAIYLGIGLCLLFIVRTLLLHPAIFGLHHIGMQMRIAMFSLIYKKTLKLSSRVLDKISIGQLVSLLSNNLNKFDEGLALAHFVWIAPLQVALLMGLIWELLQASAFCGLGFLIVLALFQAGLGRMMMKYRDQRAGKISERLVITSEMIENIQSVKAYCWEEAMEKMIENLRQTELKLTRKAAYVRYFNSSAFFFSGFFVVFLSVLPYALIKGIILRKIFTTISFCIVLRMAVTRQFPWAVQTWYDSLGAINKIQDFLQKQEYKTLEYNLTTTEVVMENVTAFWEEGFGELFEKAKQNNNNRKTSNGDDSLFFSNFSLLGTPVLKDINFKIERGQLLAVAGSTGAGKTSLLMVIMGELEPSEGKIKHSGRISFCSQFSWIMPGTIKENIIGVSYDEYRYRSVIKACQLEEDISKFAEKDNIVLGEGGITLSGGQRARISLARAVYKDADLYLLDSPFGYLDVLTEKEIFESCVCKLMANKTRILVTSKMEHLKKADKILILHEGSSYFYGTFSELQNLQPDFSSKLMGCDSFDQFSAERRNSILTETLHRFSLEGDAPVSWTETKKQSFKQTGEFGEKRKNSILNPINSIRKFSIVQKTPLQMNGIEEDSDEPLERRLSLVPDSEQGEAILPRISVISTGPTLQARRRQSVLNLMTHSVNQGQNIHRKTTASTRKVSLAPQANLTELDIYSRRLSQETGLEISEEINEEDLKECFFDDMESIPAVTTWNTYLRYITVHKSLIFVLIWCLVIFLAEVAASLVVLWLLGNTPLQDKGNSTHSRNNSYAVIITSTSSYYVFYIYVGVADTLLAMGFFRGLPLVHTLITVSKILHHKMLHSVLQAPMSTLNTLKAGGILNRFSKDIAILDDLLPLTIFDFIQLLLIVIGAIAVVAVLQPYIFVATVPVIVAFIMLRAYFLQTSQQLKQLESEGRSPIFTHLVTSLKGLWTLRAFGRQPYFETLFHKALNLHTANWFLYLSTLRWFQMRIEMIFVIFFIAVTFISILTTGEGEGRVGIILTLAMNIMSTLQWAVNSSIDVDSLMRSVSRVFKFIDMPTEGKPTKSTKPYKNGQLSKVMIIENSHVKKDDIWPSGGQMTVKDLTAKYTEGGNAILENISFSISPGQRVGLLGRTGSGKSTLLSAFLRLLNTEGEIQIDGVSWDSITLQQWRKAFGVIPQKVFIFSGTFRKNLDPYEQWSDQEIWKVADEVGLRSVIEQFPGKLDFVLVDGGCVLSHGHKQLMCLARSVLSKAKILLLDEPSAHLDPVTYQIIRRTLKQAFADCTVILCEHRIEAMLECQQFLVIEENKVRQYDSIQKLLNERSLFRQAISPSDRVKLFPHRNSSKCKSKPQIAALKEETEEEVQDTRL
How it was run: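 Cells were seeded with 0.5 μg/mL doxycycline and held 68 h at 37 °C. Test compounds plus 3 μM co-corrector (final 0.1% DMSO) were then added for 20 h at 33 °C. Washed cells received HRP substrate, and luminescence was normalized between DMSO and 3 μM co-corrector controls.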

[2] = target: T1, ΔF508-CFTR; assay: CFTR cell surface levels using HRP-tagged ΔF508-CFTR expressing CFBE cells, intrinsic corrector capacity; format: cell-based; details: for EC50: read-out: EC50
How it was run: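 Here the cells express ΔF508-CFTR with horseradish peroxidase inserted in extracellular loop 4, so only rescued channel at the surface gives luminescent signal. Compounds act on their own, 20 h at the reduced temperature of 33 °C; values are percent activity relative to DMSO and a 3 μM corrector.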

[3] = HRP-tagged ΔF508-CFTR expressing CFBE cells, intrinsic corrector capacity (no co-corrector), 33° C., 20 hours
[4] = HRP-tagged ΔF508-CFTR CFBE41o- cells, compounds alone (intrinsic corrector capacity), 20 hours at 33° C., positive control 3 μM corrector
[5] = HRP-tagged ΔF508-CFTR CFBE41o- cells, compounds alone (intrinsic corrector capacity), 20 hours at 33° C.

## CC(C)OC(=O)N1CC[C@@H]2CN(c3cc(C(=O)O)nc4c3c(C3CCC3)nn4-c3ccccc3)CC[C@@H]21 (racemic) [compound 610, rac-3-cyclobutyl-1-phenyl-4-[(3aR,7aS)-1-{[(propan-2-yl)oxy]carbonyl}octahydro-5H-pyrrolo[3,2-c]pyridin-5-yl]-1H-pyrazolo[3,4-b]pyridine-6-carboxylic acid]
[1]
  % Activation: 539.05%
  EC50: 0.0448 µM
[2]; [3]
  % Activation: 262.4%
  EC50: 0.123 µM

## CC(C)c1nn(-c2cccc(N3CCOCC3)c2)c2nc(C(=O)O)cc(-c3ccc(N(C)C)nc3)c12 [compound 89, 4-[6-(dimethylamino)pyridin-3-yl]-1-[3-(morpholin-4-yl)phenyl]-3-(propan-2-yl)-1H-pyrazolo[3,4-b]pyridine-6-carboxylic acid]
[1]
  % Activation: 482.05%
  EC50: 1.24 µM
[2]; [4]
  % Activation: 310.15%
[2]; [5]
  EC50: 2.53 µM

## Cc1nn(-c2ccccc2)c2nc(C(=O)O)cc(N3CCCCC3)c12 [compound 123, 3-methyl-1-phenyl-4-(piperidin-1-yl)-1H-pyrazolo[3,4-b]pyridine-6-carboxylic acid]
[1]
  % Activation: 267.95%
  EC50: 2.69 µM
[2]; [4]
  % Activation: 107.95%
[2]; [5]
  EC50: 3.28 µM

## CC(C)c1nn(-c2cccc(N3CCC3)c2)c2nc(C(=O)O)cc(-c3ccc(N4CCOCC4)cc3)c12 [compound 151, 1-[3-(azetidin-1-yl)phenyl]-4-[4-(morpholin-4-yl)phenyl]-3-(propan-2-yl)-1H-pyrazolo[3,4-b]pyridine-6-carboxylic acid]
[1]
  % Activation: 562.6%
  EC50: 0.644 µM
[2]; [4]
  % Activation: 322.03%
[2]; [5]
  EC50: 0.354 µM

## CC(C)c1nn(C2CCCCC2)c2nc(C(=O)O)cc(-c3ccc(N(C)C4CCOCC4)nc3)c12 [compound 169, 1-cyclohexyl-4-{6-[methyl(oxan-4-yl)amino]pyridin-3-yl}-3-(propan-2-yl)-1H-pyrazolo[3,4-b]pyridine-6-carboxylic acid]
[1]
  % Activation: 436.5%
  EC50: 0.302 µM
[2]; [4]
  % Activation: 217.88%
[2]; [5]
  EC50: 0.448 µM

## Cc1cccc(-n2nc(C(C)C)c3c(N4CCC(C#N)CC4)cc(C(=O)O)nc32)c1 [compound 191, 4-(4-cyanopiperidin-1-yl)-1-(3-methylphenyl)-3-(propan-2-yl)-1H-pyrazolo[3,4-b]pyridine-6-carboxylic acid]
[1]
  % Activation: 375.1%
  EC50: 0.481 µM
[2]; [4]
  % Activation: 208.12%
[2]; [5]
  EC50: 0.998 µM

## COC1CCN(c2cc(C(=O)O)nc3c2c(C(C)C)nn3-c2cccc(C)c2)CC1 [compound 192, 4-(4-methoxypiperidin-1-yl)-1-(3-methylphenyl)-3-(propan-2-yl)-1H-pyrazolo[3,4-b]pyridine-6-carboxylic acid]
[1]
  % Activation: 439.45%
  EC50: 0.274 µM
[2]; [4]
  % Activation: 276.92%
[2]; [5]
  EC50: 0.424 µM

## CC(C)c1nn(-c2ccnc(N3CCOCC3)c2)c2nc(C(=O)O)cc(-c3ccc(N4CCOCC4)cc3)c12 [compound 201, 4-[4-(morpholin-4-yl)phenyl]-1-[2-(morpholin-4-yl)pyridin-4-yl]-3-(propan-2-yl)-1H-pyrazolo[3,4-b]pyridine-6-carboxylic acid]
[1]
  % Activation: 439.85%
  EC50: 0.288 µM
[2]; [4]
  % Activation: 251.3%
[2]; [5]
  EC50: 0.596 µM

## CC(C)c1nn(-c2cccc(N3CCOCC3)c2)c2nc(C(=O)O)cc(-c3cnc(N4CCC(C#N)CC4)nc3)c12 [compound 204, 4-[2-(4-cyanopiperidin-1-yl)pyrimidin-5-yl]-1-[3-(morpholin-4-yl)phenyl]-3-(propan-2-yl)-1H-pyrazolo[3,4-b]pyridine-6-carboxylic acid]
[1]
  % Activation: 589.7%
  EC50: 0.844 µM
[2]; [4]
  % Activation: 402.1%
[2]; [5]
  EC50: 1.11 µM
